{"source": "patent US20100197628A1", "about": "“METHODS OF TREATING PSYCHIATRIC, SUBSTANCE ABUSE, AND OTHER DISORDERS USING COMBINATIONS CONTAINING OMEGA-3 FATTY ACIDS” (priority 2003, published 2010)", "key": {"[1]": {"experiment": "Weights of the rats at the time of the re-test", "assay_type": "in vivo, rat", "conditions": "FST studies", "experimental": "Rats: A total of 197 male Sprague-Dawley rats (Charles River Laboratories, Boston Mass.) were used in these studies. The rats were housed in groups of four and weighed 325-375 gm at the time of behavioral testing. Rats were maintained on a 12 h light (0700-1900 h)-12 h dark cycle with free access to food and water except during testing. Experiments were conducted in accordance with the 1996 Guide for the Care and Use of Laboratory Animals (NIH) and McLean Hospital policies."}, "male Sprague-Dawley rats": {"tested_on": "male Sprague-Dawley rats", "experiment": "Forced swim test (FST): latency to become immobile and behavioral sampling", "assay_type": "in vivo, rat", "conditions": "re-test", "experimental": "The behavioral effects of the combination of uridine and omega-3 fatty acids were also evaluated in rats using the forced swim test (FST). This assay identifies in rodents treatments that have antidepressant effects in humans (Porsolt et al. Nature 266:730-732 1977; Carlezon et al. Biol. Psychiatry 51:882-889, 2002). Uridine was administered using systemic injection while omega-3 fatty acids were administered by supplementation within the diet for various periods of time (3, 10, or 30 days). The effects of uridine in rats maintained on the omega-3 fatty acid-enriched diet were also evaluated to determine if these effects were additive. […] The efficacy of each treatment in the FST was evaluated using two separate scoring methods: latency to become immobile, a simple and rapid method that identifies agents with antidepressant effects ([…] et al. J Neurosci 21:7397-7403 2001), and behavioral sampling, a more complex method that differentiates antidepressant drugs according to their pharmacological mechanisms (Detke et al. Psychopharmacology 121:66-72 1995). Finally, treatments with antidepressant-like effects in the FST were evaluated for non-specific effects on activity in an open field, which might complicate interpretation of the data from the swimming studies. Rats: A total of 197 male Sprague-Dawley rats (Charles River Laboratories, Boston Mass.) were used in these studies. The rats were housed in groups of four and weighed 325-375 gm at the time of behavioral testing. Rats were maintained on a 12 h light (0700-1900 h)-12 h dark cycle with free access to food and water except during testing. Experiments were conducted in accordance with the 1996 Guide for the Care and Use of Laboratory Animals (NIH) and McLean Hospital policies. Drugs: Dosages of desipramine HCl (DMI), fluoxetine HCl (FLX), citalopram HBr (CIT), and uridine (URI) were administered in a distilled water vehicle (VEH) at a volume of 1 cc/kg. All drugs were purchased from RBI-Sigma (St. Louis, Mo.) except CIT, which was a gift of Forest Laboratories (New York, N.Y.). […] The diets were equivalent in overall fat, protein, carbohydrate, and caloric content. Forced Swim Test (FST): One hundred-sixty seven rats were used in the FST studies, which were conducted as described previously (Carlezon et al. Biol. Psychiatry 51:882-889, 2002) with minor modifications. The FST is a two-day procedure in which rats swim under conditions in which escape is not possible. On the first day, rats are placed in clear, 65 cm tall-25 cm diameter cylinders filled to 48 cm with 25° C. water. The rats initially struggle to escape from the water, but eventually they adopt a posture of immobility in which they make only the movements necessary to keep their heads above water. After 15 min of forced swimming, the rats are removed from the water, dried with towels, and placed in a warmed enclosure for 30 min. The cylinders are emptied and cleaned between rats. When the rats are re-tested 24 hours later under identical conditions in 5 min sessions, immobility is increased. Treatment with standard antidepressant drugs within the 24 hr period between the first exposure to forced swimming and re-testing can attenuate facilitated immobility, an effect correlated with antidepressant efficacy in humans (Porsolt et al. Nature 266:730-732 1977; Detke et al. Psychopharmacology 121:66-72 1995, Carlezon et al. Biol. Psychiatry 51:882-889, 2002). Rats tested with DMI, FLX, CIT, or URI received 3 separate intraperitoneal (IP) injections of drug (or VEH), at 1 hr, 19 hr, and 23 hr after the first exposure to forced swimming. This commonly used regimen is sensitive to the antidepressant-like effects of many standard agents (Porsolt et al. Nature 266:730-732 1977; Detke et al. Psychopharmacology 121:66-72 1995; Carlezon et al. Biol. Psychiatry 51:882-889, 2002). […] There were 7-12 rats per treatment condition, and separate rats were used for each treatment regimen. […]"}}, "note": "Entries after “also recorded” stand apart in the source; their conditions may differ."}
{"smiles": "O=c1ccn([C@@H]2O[C@H](CO)[C@@H](O)[C@H]2O)c(=O)[nH]1", "note": "[URI, uridine]", "values": [{"measurement": "weights of the rats", "setting": "[1]", "result": "did not affect"}, {"measurement": "latency to become immobile", "setting": "male Sprague-Dawley rats; URI 71.7 mg/kg IP", "result": "not"}, {"measurement": "latency to become immobile", "setting": "male Sprague-Dawley rats; URI 130 mg/kg IP", "result": "not"}, {"measurement": "immobility", "setting": "male Sprague-Dawley rats; URI 239 mg/kg IP", "result": "reduced immobility"}, {"measurement": "latency to become immobile", "setting": "male Sprague-Dawley rats; URI 239 mg/kg IP", "result": "increased latencies"}, {"measurement": "swimming behaviors", "setting": "male Sprague-Dawley rats; URI 239 mg/kg IP", "result": "increased swimming behaviors"}, {"measurement": "latency to become immobile, effect over doses", "setting": "male Sprague-Dawley rats; URI alone 71.7, 130, 239 mg/kg IP", "result": "dose-dependent effects; also recorded: dose-dependently increased latencies to become immobile"}, {"measurement": "occurrences of climbing", "setting": "male Sprague-Dawley rats; URI alone 71.7-239 mg/kg IP", "result": "without affecting climbing"}, {"measurement": "occurrences of immobility, effect over doses", "setting": "male Sprague-Dawley rats; URI alone 71.7-239 mg/kg IP", "result": "significantly affected; also recorded: dose-dependently decreased immobility"}, {"measurement": "occurrences of swimming, effect over doses", "setting": "male Sprague-Dawley rats; URI alone 71.7-239 mg/kg IP", "result": "significantly affected; also recorded: increased swimming"}]}
